Literature values in publication PMC10485003, “Antibiotic hyper-resistance in a class I aminoacyl-tRNA synthetase with altered active site signature motif” (Nature Communications, 2023).

Tested on: IleRS
Set-up: method as in PMID 18234501
Details: monic acid A alone, without the nonanoic acid part; cited from earlier work

Compound: CC(=CC(=O)O)CC1OCC(CC2OC2C(C)C(C)O)C(O)C1O (stereo not shown) [monic acid A]
- inhibitor activity: cannot act as an inhibitor
